How the values were obtained:
Mu-type opioid receptor [1] = biological target: T1, Mu-type opioid receptor (Bos taurus, UniProt P79350); assay: Binding affinity towards opioid receptor mu 1
Mu-type opioid receptor [2] = biological target: T1, Mu-type opioid receptor; assay: Binding affinity towards opioid receptor mu 2
[3] = biological target: Kappa-type opioid receptor (Cavia porcellus, UniProt P41144); assay: Binding affinity towards opioid receptor kappa 1
Mus musculus = assay: Antinociceptive activity displayed after pretreatment with selective opioid antagonist beta-FNA([…], sc); type: functional

Sequence of Kappa-type opioid receptor (P41144 whole entry): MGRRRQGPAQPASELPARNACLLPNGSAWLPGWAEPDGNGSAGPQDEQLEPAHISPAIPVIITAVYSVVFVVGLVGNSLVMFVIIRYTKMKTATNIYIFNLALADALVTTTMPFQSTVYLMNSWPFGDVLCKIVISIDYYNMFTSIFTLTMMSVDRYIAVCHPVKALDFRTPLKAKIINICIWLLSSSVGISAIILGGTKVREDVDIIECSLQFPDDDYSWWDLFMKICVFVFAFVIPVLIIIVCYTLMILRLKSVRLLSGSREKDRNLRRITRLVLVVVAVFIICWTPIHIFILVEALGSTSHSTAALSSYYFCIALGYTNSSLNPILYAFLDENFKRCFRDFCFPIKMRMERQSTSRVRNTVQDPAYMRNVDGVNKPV
T1 sequence (P79350 whole entry): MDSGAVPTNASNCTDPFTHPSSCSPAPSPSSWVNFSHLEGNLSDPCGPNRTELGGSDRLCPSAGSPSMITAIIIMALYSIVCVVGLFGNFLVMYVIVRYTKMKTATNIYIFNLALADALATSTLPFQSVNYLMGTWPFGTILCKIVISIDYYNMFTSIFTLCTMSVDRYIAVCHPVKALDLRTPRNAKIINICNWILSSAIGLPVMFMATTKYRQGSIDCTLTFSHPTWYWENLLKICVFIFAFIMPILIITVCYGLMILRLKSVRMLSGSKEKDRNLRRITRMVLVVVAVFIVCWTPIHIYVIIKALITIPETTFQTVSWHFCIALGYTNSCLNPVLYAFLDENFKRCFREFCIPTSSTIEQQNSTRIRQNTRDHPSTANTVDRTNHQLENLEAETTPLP

Compound | Ki (Mu-type opioid receptor [1]) [nM] | Ki (Mu-type opioid receptor [2]) [nM] | Ki [3] [nM] | Animals (Mus musculus) [%]
CC1(C)SSC(C)(C)[C@@H](NC(=O)[C@@H](N)Cc2ccc(O)cc2)C(=O)NCC(=O)N[C@@H](Cc2ccccc2)C(=O)N[C@H]1C(=O)O | 82 | 460 | – | –
C[C@@H]1C2CCCC1(c1cccc(O)c1)CCN2C (mixture of isomers) | 46 | 190 | 70 | –
CN1CCC2(c3cccc(O)c3)CCCC1[C@H]2O (mixture of isomers) | 8.8 | 28 | 110 | –
CN1CCC2(c3cccc(O)c3)CCCC1[C@@H]2O (mixture of isomers) | 75 | > 275 | > 500 | –
CN1CCC2(c3cccc(O)c3)CCCC1C2 (single isomer, unassigned; (+)) | 3.4 | 19 | 98 | 0
C[C@@H]1C2CCCC1(c1cccc(O)c1)CCN2C (single isomer, unassigned; (+)) | 140 | > 600 | 89 | –
CN1CCC2(c3cccc(O)c3)CCCC1C2 (single isomer, unassigned; (-)) | 13 | 63 | 200 | –
C[C@@H]1C2CCCC1(c1cccc(O)c1)CCN2C (single isomer, unassigned; (-)) | 18 | 50 | 49 | –

Source: ChEMBL document CHEMBL1125447, “Phenylmorphans and analogues: opioid receptor subtype selectivity and effect of conformation on activity” (J Med Chem, 1992)
